Results on six molecules are retold here after article PMC5691054, “An unexpected protein interaction promotes drug resistance in leukemia” (Nature Communications, 2017).

Broadly, the IC50 is the concentration needed to halve the response being measured.

Experiment [1] has as its system primary AML cells from adult patients. In words: Annexin V/PI apoptosis in primary AML patient samples. Type of experiment: cell-based, Human. Here is the method: Primary AML cells from adult patients were treated with either vehicle, 50 or 100 µM cytarabine, 10 nM Antimycin A, or the combination of 50 or 100 µM cytarabine + 10 nM Antimycin A for 4 h. Post treatment, the cells were washed with fresh media (2×) and resuspended in the absence or presence of 10 nM Antimycin A and cultured for an additional 44 h (for a total treatment time of 48 h). The cells were then stained with Annexin V-fluorescein isothiocyanate (FITC)/propidium iodide (PI) apoptosis Kit (Beckman Coulter; Brea, CA, USA). The stage of apoptotic cells (Annexin V-positive, but early or late apoptosis) is identified by the proportion of AnnexinV+/PI− (early apoptosis) and Annexin V+/PI+ (late apoptosis) cells. This experiment was performed once in triplicates (presented as average ± SEM) due to the limited sample availability. Patient samples were selected based on the availability of an adequate number of cells to perform the assay.

Experiment [2] deals with MO7e cells. The experiment can be described thus: 6MP cytotoxicity in MO7e cells and CRISPR knock-outs. Type of experiment: cell-based, Human. Particulars: for IC50: Homo sapiens, Mo7e, 96 h, CellTiter Glo, triplicate; for decrease of 6MP resistance vs. parental cells: MO7e. Here is the method: (§1) HEK293 cells transfected with ABCC4 or ABCC4ΔC in the presence or absence of MPP1, MO7e, and Meg01 cells were treated with 10 concentrations of 6MP, ranging from 1 to 1000 µM, for 96 h. Cell viability analysis was determined using CellTiter Glo (Promega). Where applicable, cell penetrating peptides conjugated to the PDZ-binding motif of ABCC4 (labeled either ABCC4-PDZ or ABCC4ΔC) were added to the cells at 20 μM. Media was changed daily and new ABCC4-PDZ/ABCC4ΔC peptide and 6MP was added. IC50 values were calculated using GraphPad Prism.
CRISPR-Cas9 plasmids containing gRNAs against ABCC4 ([…]) and MPP1 ([…]) were purchased from Sigma Aldrich. MO7e cells were transiently transfected with constructs containing the gRNA, Cas9 Nickase, and a flurophore. Forty-eight hours after transfection, cells were sorted for fluorescent positive cells and single cells were sorted into individual wells of a 96-well plate. Single-sorted cells were allowed to expand and deletion of the gene of interest was verified by immunoblotting.
The Meg01, MO7e, and ABCC4 KO MO7e cell lines were plated at 1500 cells per well in a 96-well plate. Cells were treated with 10 concentrations of Antimycin A (Santa Cruz) ranging from 0.01 to 1000 μM. Cell viability was determined using CellTiter Glo (Promega). Meg01, MO7e, and ABCC4 KO MO7e cells in the presence or absence of 10 nM Antimycin A were treated with 10 concentrations of 6MP, ranging from 1 to 1000 µM, for 96 h. Cell viability analysis was determined using CellTiter Glo. IC50 values were calculated using GraphPad Prism.
In general terms: Cellular ATP, detected with luciferase, serves as a proxy for viable cell number.

In experiment [3] the test system is HEK293 cells. The experiment can be described thus: 6MP cytotoxicity / drug resistance in transfected HEK293 cells. It counts as cell-based, Human. As to conditions: for IC50: Homo sapiens, HEK293, 96 h, HEK293 expressing ABCC4, CellTiter Glo. Here is the method: as §1
The target in experiment [4] is T1, MPP1 and ABCC4 protein interaction (Homo sapiens, UniProt Q00013).
T1 construct: For full-length expression of MPP1, the pTriX vector containing an N-terminal His tag was used to create the His-S-MPP1 fusion protein; made in house; host or cells: E. coli
T1 sequence (Q00013 1-466): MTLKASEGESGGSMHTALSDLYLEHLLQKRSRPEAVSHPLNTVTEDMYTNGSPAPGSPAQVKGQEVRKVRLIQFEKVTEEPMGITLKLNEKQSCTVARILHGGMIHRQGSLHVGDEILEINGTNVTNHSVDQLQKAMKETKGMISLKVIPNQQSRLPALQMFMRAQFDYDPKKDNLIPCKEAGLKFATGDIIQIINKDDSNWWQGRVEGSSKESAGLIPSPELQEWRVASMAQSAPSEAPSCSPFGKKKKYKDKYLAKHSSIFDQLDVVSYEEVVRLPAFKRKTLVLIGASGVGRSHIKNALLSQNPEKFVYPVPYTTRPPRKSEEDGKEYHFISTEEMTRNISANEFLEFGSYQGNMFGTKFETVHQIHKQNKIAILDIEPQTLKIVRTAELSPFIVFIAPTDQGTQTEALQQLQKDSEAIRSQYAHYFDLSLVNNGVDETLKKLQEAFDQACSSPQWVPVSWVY
In words: Competition of ABCC4 C-terminal peptides with MPP1–ABCC4 complex (GST-ABCC4-C100 pull-down, immunoblot). Type of experiment: biochemical. As to conditions: in words; in vitro competition experiment. Here is the method:
C-terminal peptides of ABCC4 containing the carboxyl-terminal 15 amino acids ([…]-COOH, ABCC4-PDZ) or carboxyl-terminal 11 amino acids lacking the PDZ-binding motif ([…]-COOH, ABCC4ΔC) conjugated to the cell penetrating peptide TAT ([…]) were chemically synthesized by the Hartwell Center for Bionformatics and Biotechnology at SJCRH. ABCC4 peptides (1–4 μM) were mixed with purified GST-ABCC4-C100 (50 nM) (Supplementary Fig. 10 ) before addition of His-S-MPP1 (3.6 nM) and allowed to mix for 2 h at 24 °C. The GST-ABCC4-C100 was immobilized on glutathione beads, and washed 3 times. Protein complexes were eluted from the beads, separated by SDS-PAGE, and immunoblotted with rabbit anti-MPP1.
In general terms: Immunoblotting shows a protein as a band on a membrane.

Experiment [5] has as its system murine hematopoietic progenitor cells (HPC). In words: Hematopoietic progenitor cell serial replating in methylcellulose. As to conditions: HPC transduced with MPP1; cell penetrating peptide, fresh at each replating; n = 3.
Description: In these experiments, littermates were used as controls. Bone marrow from 8- to 12-week-old female virgin C57/BL6 mice were harvested. Progenitors were enriched by incubating with lineage-PE antibodies (CD4, CD8, Mac1, Gr1, NK1.1, B220, and Ter119) and separated using AutoMACS Pro (Miltenyi). Hematopoetic progenitor cells were cultured in the presence of recombinant murine SCF (rmSCF), IL3 (rmIL3), and IL6 (rmIL6) (Peprotech; all 50 ng/ml) for 48 h before transduction on RetroNectin (Takara) coated plates. Retroviral supernatant containing media was produced by transient transfection of HEK293T cells with MSCV based retroviral plasmids encoding either MYCN-ires-YFP or MPP1-ires-CFP as previously described[35]. Forty-eight hours post transduction, cells were harvested, sorted for either YFP or CFP expression, and plated on methylcellulose containing IL3, IL6, SCF, and EPO (Stem Cell Technologies). Colonies were counted after 7 days growth at 37 °C, harvested, and replated.
Experiment [6] relates to ABCC4 plasma membrane localization in HEK293 cells expressing MPP1 and GFP-ABCC4. The experiment can be described thus: ABCC4 plasma membrane localization (confocal microscopy). Type of experiment: cell-based, Human. On the procedure:
Peptides containing or lacking the ABCC4-PDZ motif were fused with the cell penetrating HIV-TAT peptide. These peptides were tested for their effect on ABCC4 plasma membrane localization. HEK293 cells were transfected with MPP1 and GFP-ABCC4 and the ER protein, calreticulin. The plasma membrane was counter-stained with wheat-germ-agglutinin (WGA) labeled with Alexa647 after treatment with either ABCC4-PDZ or ABCC4ΔC peptide.
HEK293 cells were seeded on chambered coverglass slides (LAB-TEK) 48 h before transfection with plasmid DNA (250 ng) encoding pAc-GFP-ABCC4 or ABCC4ΔC and pCal plasmid encoding the ER resident protein calreticulin conjugated to RFP (Origene). Transfection was performed using Lipofectamine 2000 as per the manufacturer’s instructions. Immediately prior to visualizing cells, cells were counterstained with the plasma membrane marker wheat-germ agglutinin (WGA) conjugated to Alexa-647 (Invitrogen). All confocal microscopy images were acquired on a 3i Marianas system configured with an Yokagowa CSU-X spinning disk confocal microscope utilizing a ×63 Zeiss objective, using the 488 (GFP), 561 (RFP), and 660 (far red) laser lines.

The subject of experiment [7] is MO7e cells. The experiment can be described thus: 6MP cytotoxicity in MO7e cells and CRISPR knock-outs. It counts as cell-based, Human. Particulars: cell permeable peptide (10 μM), in words.
Experiment [8] relates to MO7e cells. The experiment can be described thus: Etoposide cytotoxicity in MO7e cells and CRISPR knock-outs. It counts as cell-based, Human. As to conditions: for IC50: Homo sapiens, Mo7e, triplicate.
Experiment [9] relates to HEK293 cells. In words: Etoposide cytotoxicity in transfected HEK293 cells. As to conditions: for IC50: Homo sapiens, triplicate. It counts as cell-based, Human.
In another experiment the test system is ABCC4 (MO7e lysates). In words: Immunoprecipitation of ABCC4 from MO7e lysates by purified MPP1 fragments. Type of experiment: binding, Human. As to conditions: purified fragment with MO7e lysates, n = 3, in words. The text has this: For full-length expression of MPP1, the pTriX vector containing an N-terminal His tag was used to create the His-S-MPP1 fusion protein. Proteins were expressed in E. coli and purified using a nickel column (Supplementary Fig. 9). The production of cDNA constructs containing various defined segments of MPP1 has been described previously. The cDNA fragments containing either the N-terminal domain of MPP1 (amino acids 1–83), the PDZ domain (amino acids 83–160) or the C-terminal domain, containing both the SH3 and GUK domains (amino acids 161–466), were PCR amplified and subcloned into the pGex vector. All clones were fully sequenced to confirm their identity and reading frame. The GST-fusion proteins were purified using a glutathione column.

“Also recorded” adds a separate entry of the source. Where no end group is shown, it is not given here.

Consider `Nc1ccn([C@@H]2O[C@H](CO)[C@@H](O)[C@@H]2O)c(=O)n1` [cytarabine, cytosine arabinoside], for which the “cytarabine response of primary AML cells” value in experiment [1] (one primary AML patient sample, in culture and in vivo (peer review file)) was “non-responsive”; in experiment [1] (the other patient sample (peer review file)) it was “sensitive”.
With `Sc1ncnc2nc[nH]c12` [6MP, 6-mercaptopurine], the IC50 is 13.6 µM in the experiment on MO7e cells [2] (MO7e + Antimycin A (10 nM), Fig. 6a); 22.2 µM in the experiment on MO7e cells [2] (MO7e ABCC4 KO + Antimycin A (10 nM), Fig. 6a); 27.6 µM with MO7e cells [2] (MO7e ABCC4 KO, Fig. 4f); 10.9 µM in the experiment on MO7e cells [2] (MO7e DKO (ABCC4 and MPP1), Fig. 4f); 27.7 µM in the experiment on MO7e cells [2] (MO7e MPP1 KO, Fig. 4f); 135 µM with MO7e cells [2] (MO7e parental, Fig. 4f). In addition, the half-inhibitory concentration (IC50) with MO7e cells [2] (without Antimycin A, Fig. 6a) is 135 µM; with HEK293 cells [3] (end of the shift with increasing MPP1 (P < 0.05), 96 h), 608 µM; in the experiment on HEK293 cells [3] (start of the shift with increasing MPP1, 96 h) it was 184 µM. The “decrease of 6MP resistance vs. parental cells” value in the experiment on MO7e cells [2] (MPP1 deletion alone) and in the experiment on MO7e cells [2] (deletion of ABCC4) was “over fourfold” each time. Moreover, in the experiment with HEK293 cells [3] (HEK293, ABCC4ΔC, in words), the “effect of MPP1 on survival of cells expressing ABCC4 lacking the PDZ motif” value is “no additional survival benefit”. In the experiment on HEK293 cells [3] (HEK293 ABCC4 vs. empty vector (Ctrl)), the “increase of 6MP IC50 by ABCC4 expression” value was 2.6 fold.
“SNGQPSTLTIF-COOH (YGRKKRRQRRRSNGQPSTLTIF-OH) [ABCC4ΔC]”: the “effect of peptide on 6MP IC50” value in the experiment with HEK293 cells [3] (HEK293 co-expressing ABCC4 and MPP1, cell penetrating peptide (20 μM in methods; various amounts), 96 h, in words) is “without effect; also recorded: no effect on 6MP IC50 values”. For the same molecule, in experiment [4], the “disruption of the MPP1 and ABCC4 protein interaction” value is “incapable of disrupting the MPP1 and ABCC4 protein interaction”. Moreover, the “effect on MPP1-driven methylcellulose replating” value in experiment [5] is “incapable of suppressing MPP1-stimulated replating”. For the same molecule, the “ABCC4 remaining at the membrane” value in experiment [6] (cell penetrating peptide (TAT fused; 10 μM in Supplementary Fig. 4), n = 20 fields of view) was greater than 80%. The “effect on ABCC4 plasma membrane localization” value in experiment [6] (in words, confocal microscopy) is “ineffective in relocalizing ABCC4”. For the same molecule, in the experiment with MO7e cells [7], the “effect of peptide on 6MP sensitivity” value was “had no effect”.
As for `COc1cc([C@@H]2c3cc4c(cc3[C@@H](O[C@@H]3O[C@@H]5CO[C@@H](C)O[C@H]5[C@H](O)[C@H]3O)[C@H]3COC(=O)[C@H]23)OCO4)cc(OC)c1O` [Etoposide, etoposide], the 50% inhibitory concentration (IC50) in the experiment with MO7e cells [8] (MO7e ABCC4 KO) stood at 23.9 µM; in the experiment on MO7e cells [8] (MO7e DKO) it was 21.5 µM; in the experiment with MO7e cells [8] (MO7e MPP1 KO), 20 µM; in the experiment on MO7e cells [8] (MO7e parental), 27.2 µM; with HEK293 cells [9] (HEK293, HEK293 ABCC4 + MPP1) it was 1200 nM; in the experiment with HEK293 cells [9] (HEK293, HEK293 ABCC4), 1300 nM. Besides, the IC50 in the experiment with HEK293 cells [9] (HEK293, HEK293 ABCC4ΔC + MPP1) is 1200 nM; in the experiment with HEK293 cells [9] (HEK293, HEK293 ABCC4ΔC), 1500 nM; in the experiment on HEK293 cells [9] (HEK293, HEK293 Ctrl (empty vector)) it was 1400 nM. In the experiment on MO7e cells [8] (MO7e ABCC4 KO, MPP1 KO, DKO, in words), the “etoposide sensitivity of knock-out strains” value is “did not affect etoposide sensitivity; also recorded: equally sensitive to etoposide”. For the same molecule, in the experiment with HEK293 cells [9] (HEK293, in words), the “effect of ABCC4 and/or MPP1 on etoposide sensitivity” value is recorded as “not affected by MPP1; also recorded: not affected by the presence of either ABCC4 and/or MPP1”.

B1: MPP1 N terminus: MPP1 N terminus, up to the PDZ domain (amino acids 1–83) (protein, UniProt Q00013 1-83, looked up, fragment)
chain: MTLKASEGESGGSMHTALSDLYLEHLLQKRSRPEAVSHPLNTVTEDMYTNGSPAPGSPAQVKGQEVRKVRLIQFEKVTEEPMG
Take B1: the “immunoprecipitation of ABCC4” value in the experiment on ABCC4 (MO7e lysates) is given as “incapable of immunoprecipitating ABCC4”.

B2: SH3 and GUK domain: SH3 and GUK domain of MPP1 (amino acids 162–466) (protein, UniProt Q00013 162-466, looked up, fragment)
chain: FMRAQFDYDPKKDNLIPCKEAGLKFATGDIIQIINKDDSNWWQGRVEGSSKESAGLIPSPELQEWRVASMAQSAPSEAPSCSPFGKKKKYKDKYLAKHSSIFDQLDVVSYEEVVRLPAFKRKTLVLIGASGVGRSHIKNALLSQNPEKFVYPVPYTTRPPRKSEEDGKEYHFISTEEMTRNISANEFLEFGSYQGNMFGTKFETVHQIHKQNKIAILDIEPQTLKIVRTAELSPFIVFIAPTDQGTQTEALQQLQKDSEAIRSQYAHYFDLSLVNNGVDETLKKLQEAFDQACSSPQWVPVSWVY
As for B2, the “immunoprecipitation of ABCC4” value with ABCC4 (MO7e lysates) is “incapable of immunoprecipitating ABCC4”.
